Experimental data: patent publication US20040157793A1, “Modified nucleosides as antiviral agents” (priority 2002, published 2004)
Where two headings read alike, the source gives them in different places. One block for each molecule: values may come before it.

What was measured:
[1] = test system: HBV (3TC-resistant virus: rtV204) in HepAD79 cells; experiment: microbe, parasite or virus in culture; type: cell-based; settings: for HepAD79 log10 inhibition at 10 μM / EC90: HepAD79 cells, 13-day incubation; for HepAD79 log10 inhibition at 10 μM: HBV DNA in supernatant; for EC90: read-out: HepAD79 EC90
Description: (§1) HepAD38 and HepAD79 cells were seeded at 5×10^4 cells/well in a 96-well plate in seeding medium (DMEM/F12+10% FBS, 50 μg/ml penicillin, 50 μg/ml streptomycin, 100 μg/ml kanamycin, 400 μg/ml G418, and 0.3 μg/ml tetracycline) and incubated for 2 days at 37° C. in a 5% CO2, humidified atmosphere. The seeding media was removed, and cells were washed 3 times with PBS. Cells were then incubated with 200 μL assay medium (DMEM/F12+10% FBS+P/S/K) containing either (i) no compound, (ii) test compound, or (iii) control drugs at 10 μM. After an additional 5-day (HepAD38) or 13-day incubation (HepAD79, with renewal of the culture media at day 7), the cell supernatant was collected and stored at −70° C. until HBV DNA was quantified.
(§2) HBV DNA was extracted from supernatant using QiaAmp DNA blood Mini kit (Qiagen) and nucleic acids eluted in 200 μl Viral DNA was detected by quantitative PCR (Q-PCR). The TaqMan probe and primers were designed using the Primer Express software (Applied Biosystems) and cover highly conserved sequences complementary to the DNA sequences present in HBsAg. A total of 5 μl DNA was amplified using reagents and conditions as described by the manufacturer (Applied Biosystems).
Subsequently, the time course of viral induction in HepAD79 cells over a 13-day incubation period was investigated.
Therefore, the DNA extracted from the cell supernatant was also amplified by Q-PCR for the presence of cellular DNA (the rRNA gene).

[2] = test system: HBV (wild-type virus: rtM204) in HepAD38 cells; experiment: Suppression of HBV production in HepAD38 cells, viral DNA in supernatant by Q-PCR; type: cell-based; settings: for HepAD38 log10 inhibition at 10 μM / EC90: HepAD38 cells, 5-day incubation; for HepAD38 log10 inhibition at 10 μM: HBV DNA in supernatant; for EC90: concentration reducing viral load by 90%, unit printed in text only, read-out: HepAD38 EC90
Excerpt: The HepAD38 (wild-type virus: rtM204) and HepAD79 (3TC-resistant virus: rtV204) (Stuyver L. J. et al. 2001, Hepatol., 33:751-757) cell lines replicate HBV under conditions that can be regulated with tetracycline (King R. W. et al. 2000, Methods in Molecular Medicine, Vol 24: Antiviral Methods and Protocols, 43-50 (eds: D. Kinchington & R. F. Schinazi), Humana Press Inc, Totowa, N.J.); Ladner, et al. 1997, Antimicrob. Agents Chemother., 41:1715-1720; Ladner S. K., et al. 1998a. Antivir. Chem. Chemother., 9:65-72; Ladner S. K., et al. 1998b. Antimicrob. Agents Chemother., 42:2128-31). In the presence of this drug, the cell supernatant is virtually free of viral DNA, but upon the removal of tetracycline from the culture medium, these cells secrete virus-like particle into the supernatant.
as §1
as §2, with “Biosystems). […]” for “Biosystems).”

[3] = test system: HepG2 cells (mitochondrial COXII DNA)
HepG2 cells = experiment: Cell growth of HepG2 cells during 14-day treatment; type: cell-based, human; settings: HepG2, up to 100 μM, 14 days
Description: In addition, these compounds were also tested in the HepG2 cell line (14-day treatment, 100 μM) for their ability to reduce mitochondrial DNA levels (using a newly designed normalized Q-PCR protocol as described in Stuyver, L. J., et al. 2002, Antimicrob. Agents Chemother., 46:3854-3860) or lactic acid production.

[4] = HepG2, 14-day treatment, 100 μM

SMILES: Nc1nc(=O)n(C2CSC(CO)O2)cc1F (single isomer, unassigned; (-)) [(−)-FTC, (−)-enantiomer of 2-hydroxymethyl-5-(5-fluorocytosin-1-yl)-1,3-oxathiolane]
HepAD79 log10 inhibition at 10 μM [1]: 0.28 log10
EC90 [1]: > 10 µM
HepAD38 log10 inhibition at 10 μM [2]: 1.59 ± 0.14 log10
EC90 [2]: 1.16 ± 0.66 µM

SMILES: Nc1ccn([C@@H]2C=C[C@H](CO)O2)c(=O)n1 [L-d4C]
Average ΔCt ± s.d. MitCoxII ([3]; HepG2, 14-day treatment, 10 μM): 2.72 ± 0.37
Average ΔCt ± s.d. rDNA ([3]; HepG2, 14-day treatment, 10 μM): 3.96 ± 0.87
Average ΔΔCt ± s.d. MitCOXII-rDNA ([3]; HepG2, 14-day treatment, 10 μM): −1.24 ± 0.50
Fold difference in COXII DNA levels normalized for rDNA (range) relative to control ([3]; HepG2, 14-day treatment, 10 μM): 2.36 (1.67-3.35)
Average ΔCt ± s.d. MitCoxII [3, 4]: 6.82 ± 0.33
Average ΔCt ± s.d. rDNA [3, 4]: 10.14 ± 0.77
Average ΔΔCt ± s.d. MitCOXII-rDNA [3, 4]: −3.32 ± 0.75
Fold difference in COXII DNA levels normalized for rDNA (range) relative to control [3, 4]: 9.99 (5.92-16.85)
effect on mitochondrial DNA levels (in words) ([3]; HepG2, up to 100 μM, 14 days): did not specifically affect the mitochondrial DNA levels
HepAD79 log10 inhibition at 10 μM [1]: 1.54 ± 0.38 log10
EC90 [1]: 0.96 µM
FI EC90 AD79/EC90 AD38 ([1]; fold increase, EC90 HepAD79 over EC90 HepAD38): 16
effect on cell growth (in words) (HepG2 cells): reduced the cell growth significantly
HepAD38 log10 inhibition at 10 μM [2]: 2.79 ± 0.08 log10
EC90 [2]: 0.06 ± 0.02 µM

SMILES: Nc1nc(=O)n([C@@H]2CC[C@H](CO)O2)cc1F [L-FddC]
HepAD79 log10 inhibition at 10 μM [1]: 0.02 log10
EC90 [1]: > 10 µM
HepAD38 log10 inhibition at 10 μM [2]: 2.03 log10
EC90 [2]: 0.31 µM

Average ΔCt ± s.d. MitCoxII ([3]; HepG2, 14-day treatment, 10 μM): 7.70 ± 0.08
Average ΔCt ± s.d. rDNA ([3]; HepG2, 14-day treatment, 10 μM): 0.92 ± 0.52
Average ΔΔCt ± s.d. MitCOXII-rDNA ([3]; human, 14 days, 10 μM): 6.78 ± 0.56
Fold difference in COXII DNA levels normalized for rDNA (range) relative to control ([3]; human, 14 days, 10 μM): 0.01 (0.01-0.01)
SMILES: Nc1ccn([C@H]2CC[C@@H](CO)O2)c(=O)n1 [ddC, 2′,3′-dideoxycytidine]

SMILES: Nc1nc(=O)n([C@H]2O[C@@H](CO)C=C2F)cc1F [L-2′F-D4FC]
Average ΔCt ± s.d. MitCoxII ([3]; HepG2, 14-day treatment, 10 μM): 0.05 ± 0.07
Average ΔCt ± s.d. rDNA ([3]; HepG2, 14-day treatment, 10 μM): −0.23 ± 0.20
Average ΔΔCt ± s.d. MitCOXII-rDNA ([3]; HepG2, 14-day treatment, 10 μM): 0.28 ± 0.17
Fold difference in COXII DNA levels normalized for rDNA (range) relative to control ([3]; HepG2, 14-day treatment, 10 μM): 0.82 (0.73-0.92)
Average ΔCt ± s.d. MitCoxII [3, 4]: 0.83 ± 0.17
Average ΔCt ± s.d. rDNA [3, 4]: 0.85 ± 0.51
Average ΔΔCt ± s.d. MitCOXII-rDNA [3, 4]: −0.02 ± 0.64
Fold difference in COXII DNA levels normalized for rDNA (range) relative to control [3, 4]: 1.01 (0.65-1.58)
HepAD79 log10 inhibition at 10 μM [1]: 0.23 log10
EC90 [1]: > 10 µM
activity against the mutant virus (in words) ([1]; rtV204 mutant virus): completely inactive
HepAD38 log10 inhibition at 10 μM [2]: 1.91 ± 0.13 log10
EC90 [2]: 0.63 µM
inhibition of wild type HBV (in words) ([2]; wild type HBV): potent inhibitors
